Patent US20260091020A1, “TREATMENT OF ACUTE CANNABINOID OVERDOSE” (Anebulo Pharmaceuticals, Inc., priority 2022, published 2026)
Like-named read-outs stand apart in the source and are kept apart here.

Experiment: Plasma PK of ANEB-001 and THC, 30 mg or 10 mg oral Compound 1 with 21 mg THC (Example 4)
Type: in vivo, human
Details: for concentration at 0 h / concentration at 20 min / concentration at 40 min / concentration at 1 h / concentration at 2 h / concentration at 3 h / concentration at 4 h / concentration at 5 h / concentration at 24 h / AUC(0-t) / Cmax / Tmax: human, in vivo; for concentration at 0 h: 00H00M; for concentration at 20 min: 00H20M; for concentration at 40 min: 00H40M; for concentration at 1 h: 01H00M; for concentration at 2 h: 02H00M; for concentration at 3 h: 03H00M; for concentration at 4 h: 04H00M; for concentration at 5 h: 05H00M; for concentration at 24 h: 24H00M; for Tmax: read-out: THC plasma tmax, Median
Protocol: Following the general methods of Example 2, the study design was adjusted such that groups received either (a) THC (21 mg)+placebo or (b) THC (21 mg)+Compound 1 (30 mg) (FIG. 14) or either (a) THC (21 mg)+placebo or (b) THC (21 mg)+Compound 1 (10 mg) (FIG. 15). […] Summary of pharmacokinetics of THC with 30 mg ANEB-001 challenge (FIG. 18A and FIG. 18B), AUC after 5 hours (FIG. 18C), AUC last (FIG. 18D) and Cmax (FIG. 18E).
Summary of pharmacokinetics for 30 mg ANEB-001 and 10 mg ANEB-001 challenge with 21 mg THC administration in plasma (FIGS. 19A and 19B); AUC after 5 hours for 10 mg ANEB-001 and 30 mg ANEB-001 (FIG. 19C), AUC last (FIG. 19D), and Cmax (FIG. 19E).
All PK parameter calculations were based on actual sampling time. For calculation of PK parameters, all BLQ concentrations that were between the first and last non-BLQ values were dropped (treated as ‘missing’). For calculation of AUClast and t1/2, additionally all values that were BLQ after the last non-BLQ value were dropped (treated as missing). If data points for concentrations were missing, the AUC parameters were derived by interpolating with regard to the 2 neighboring non-missing concentrations. AUC was calculated using the log-linear trapezoidal rule.
Reporting of drug concentration data. The concentrations are summarized (mean, SD, % CV, median, Min and Max values) by treatment and time, and are also presented graphically as mean over time, with standard deviation as error bars. For graphical and summary purposes of drug concentrations, values below the limit of quantification (BLQ) are set to zero. The SD and CVT are not reported if the mean is 0.
Reporting of PK parameters. The individual PK parameters (except tmax and tlag) are summarized (mean, SD, CV, geometric mean, geometric CV, median, M in and Max) per treatment group and a selection of the PK parameters are presented graphically as boxplots. For tmax and tlag, the median, Min and Max statistics are reported. Boxplots present the median (horizontal solid line), the 25%-75% distribution (IQR), with 1.5× the IQR as whiskers.

[1] = 21 mg THC + 30 mg ANEB-001, read-out: THC in Plasma (concentration), Mean
[2] = 21 mg THC + 30 mg ANEB-001, read-out: THC in Plasma (concentration), Median
[3] = 21 mg, 21 mg THC + Placebo, read-out: THC in Plasma (concentration), Mean
[4] = 21 mg, 21 mg THC + Placebo, read-out: THC in Plasma (concentration), Median

## CCCCCc1cc(O)c2c(c1)OC(C)(C)[C@@H]1CCC(C)=C[C@@H]21 [THC, Δ9-tetrahydrocannabinol]
21 mg THC + 30 mg ANEB-001
  THC Dose normalized Cmax, GeoMean: 0.4482 ng/mL/mg
  THC Dose normalized Cmax, Mean: 0.4658 ng/mL/mg
  THC Dose normalized Cmax, Median: 0.442 ng/mL/mg
  THC plasma tlag, Median: 0 h
  Tmax: 40.2 min
21 mg THC + Placebo
  THC Dose normalized Cmax, GeoMean: 0.2634 ng/mL/mg
  THC Dose normalized Cmax, Mean: 0.2965 ng/mL/mg
  THC Dose normalized Cmax, Median: 0.260 ng/mL/mg
  THC plasma AUC5H, Mean: 14.6 ng·h/mL
  THC plasma tlag, Median: 0 h
  Tmax: 40.2 min
[1]
  concentration at 0 h: 0.0163 ng/mL
  concentration at 20 min: 4.16 ng/mL
  concentration at 40 min: 8.94 ng/mL
  concentration at 1 h: 7.45 ng/mL
  concentration at 2 h: 4.07 ng/mL
  concentration at 3 h: 2.46 ng/mL
  concentration at 4 h: 1.22 ng/mL
  concentration at 5 h: 0.744 ng/mL
  concentration at 24 h: 0.0551 ng/mL
[2]
  concentration at 0 h: 0 ng/mL
  concentration at 20 min: 3.48 ng/mL
  concentration at 40 min: 8.4 ng/mL
  concentration at 1 h: 7.31 ng/mL
  concentration at 2 h: 4.01 ng/mL
  concentration at 3 h: 2.03 ng/mL
  concentration at 4 h: 1.28 ng/mL
  concentration at 5 h: 0.684 ng/mL
  concentration at 24 h: 0 ng/mL
21 mg THC + 30 mg ANEB-001, read-out: THC plasma AUC5H, GeoMean
  AUC(0-t): 16.3 ng·h/mL
21 mg THC + 30 mg ANEB-001, read-out: THC plasma AUC5H, Mean
  AUC(0-t): 17 ng·h/mL
21 mg THC + 30 mg ANEB-001, read-out: THC plasma AUC5H, Median
  AUC(0-t): 16.1 ng·h/mL
21 mg THC + 30 mg ANEB-001, read-out: THC plasma AUClast, GeoMean
  AUC(0-t): 17.9 ng·h/mL
21 mg THC + 30 mg ANEB-001, read-out: THC plasma AUClast, Mean
  AUC(0-t): 19.3 ng·h/mL
21 mg THC + 30 mg ANEB-001, read-out: THC plasma AUClast, Median
  AUC(0-t): 18.4 ng·h/mL
21 mg THC + 30 mg ANEB-001, read-out: THC plasma Cmax, GeoMean
  Cmax: 9.41 ng/mL
21 mg THC + 30 mg ANEB-001, read-out: THC plasma Cmax, Mean
  Cmax: 9.78 ng/mL
21 mg THC + 30 mg ANEB-001, read-out: THC plasma Cmax, Median
  Cmax: 9.28 ng/mL
[3]
  concentration at 0 h: 0 ng/mL
  concentration at 20 min: 2.22 ng/mL
  concentration at 40 min: 6.1 ng/mL
  concentration at 1 h: 5.78 ng/mL
  concentration at 2 h: 2.85 ng/mL
  concentration at 3 h: 3.23 ng/mL
  concentration at 4 h: 1.66 ng/mL
  concentration at 5 h: 1.06 ng/mL
  concentration at 24 h: 0.0206 ng/mL
[4]
  concentration at 0 h: 0 ng/mL
  concentration at 20 min: 2.01 ng/mL
  concentration at 40 min: 5.46 ng/mL
  concentration at 1 h: 5.47 ng/mL
  concentration at 2 h: 1.86 ng/mL
  concentration at 3 h: 1.47 ng/mL
  concentration at 4 h: 0.894 ng/mL
  concentration at 5 h: 0.456 ng/mL
  concentration at 24 h: 0 ng/mL
21 mg, 21 mg THC + Placebo, read-out: THC plasma AUC5H, GeoMean
  AUC(0-t): 12 ng·h/mL
21 mg, 21 mg THC + Placebo, read-out: THC plasma AUC5H, Median
  AUC(0-t): 9.32 ng·h/mL
21 mg, 21 mg THC + Placebo, read-out: THC plasma AUClast, GeoMean
  AUC(0-t): 13 ng·h/mL
21 mg, 21 mg THC + Placebo, read-out: THC plasma AUClast, Mean
  AUC(0-t): 18.3 ng·h/mL
21 mg, 21 mg THC + Placebo, read-out: THC plasma AUClast, Median
  AUC(0-t): 9.32 ng·h/mL
21 mg, 21 mg THC + Placebo, read-out: THC plasma Cmax, GeoMean
  Cmax: 5.53 ng/mL
21 mg, 21 mg THC + Placebo, read-out: THC plasma Cmax, Mean
  Cmax: 6.23 ng/mL
21 mg, 21 mg THC + Placebo, read-out: THC plasma Cmax, Median
  Cmax: 5.47 ng/mL
